Source: article PMC3871601, “Potential Cooperations between Odorant-Binding Proteins of the Scarab Beetle Holotrichia oblita Faldermann (Coleoptera: Scarabaeidae)” (PLoS ONE, 2013)
Like-named read-outs stand apart in the source and are kept apart here.

Tests used:
HoblOBP3 [1] = target: T1, HoblOBP3 (Holotrichia oblita, UniProt G9BWQ7); assay: biochemical; format: binding
Method: (§1) N-phenyl-1-naphthylamine (1-NPN) was selected as a probe to measure the affinity of the 1-NPN fluorescent ligand to proteins. A 1-cm light path quartz cuvette was used, and the fluorescence spectra were recorded on a Lengguang 970 CRT spectrofluorimeter (Shanghai Jingmi, China) at room temperature in a right angle configuration. The parameter selection was such that the slit widths for both excitation and emission were 10 nm. 1-NPN was excited at 337 nm and the emission spectra were recorded between 350 and 550 nm. Spectra were recorded using high-speed scanning.
(§2) The 2 µM protein solution was dissolved in 50 mM Tris-HCl buffer with pH 7.4, and the ligands were dissolved in chromatographically pure methanol as a 1 mM stock solution. 1-NPN was dissolved in chromatographically pure methanol as a 1 mM stock solution.
(§3) To determine the dissociation constants, the intensity values corresponding to the maximum fluorescence emission were plotted against free ligand concentrations. Assuming that the protein was 100% active and that the stoichiometric ratio between the protein and ligand was 1:1 at saturation, the bound ligand was determined from the fluorescence intensity values. The curves were then linearized using Scatchard plots. The K1-NPN values were estimated using GraphPad Prism 5 Software by nonlinear regression for a unique binding site. The dissociation constants of the competitors (Ki) were calculated from the corresponding IC50 values using the following equation: Ki = [IC50]/1+[1-NPN]/K1-NPN. […] [1-NPN] represented the free concentration of 1-NPN, and K1-NPN represented the dissociation constant of the complex protein/1-NPN [76].

HoblOBP4 [2] = target: T2, HoblOBP4 (Holotrichia oblita, UniProt G9BWQ8); assay: biochemical; format: binding; conditions: for Affinity (in words): HoblOBP4 alone
Method: as §1, §2, §3

[3] = tested on: HoblOBP2 and HoblOBP4 mixtures; assay: Competitive binding assay with binary protein mixture OBP2-OBP4; design: species or system Holotrichia oblita; conditions: HoblOBP2 and HoblOBP4 equimolar mixture and 1-NPN 2 µM, ligand 4–40 µM
Method: (§4) It is well known that the concentration of OBPs (also likely CSPs) in the sensillum lymph of the insect is extremely high (reportedly 10 mM). A hypothesis has been proposed that OBPs (or CSPs) homodimers or heterodimers might form. Thus, all binary potential intersections with four HoblOBPs and two HoblCSPs were tested in competitive binding assays to determine the existence of dimers. These experiments assumed that the protein was 100% active, a stoichiometric ratio between the protein and ligand was 1:1 at saturation and the two proteins were present in equimolar amounts. The binding curves and Scatchard plots of OBP3 and OBP4 mixture or CSP1 and CSP2 mixture were consistent with the functions of the individual proteins. However, the binding curve of the OBP2 and OBP4 mixture or OBP1 and OBP2 mixture presented a different tendency from those obtained with the individual proteins. […] Thus, we speculated that the decreased binding velocity was the main cause underlying this phenomenon. […] Such binding of the OBP2 and OBP4 mixture or OBP1 and OBP2 mixture in H. oblita was consistent with the OBP1 and OBP4 mixture in A. gambiae. In particular, some experiments also indicated interactions between OBP1 and OBP4 in A. gambiae. Thus, the hypothesis on a potential interaction between OBP2 and OBP4 (or OBP1 and OBP2) in H. oblita was proposed.
(§5) Figure 8 Competitive binding curves of representative ligands to binary protein mixtures OBP2-OBP4 and OBP1-OBP2 in H. oblita. The chemical structures of the ligands are shown on the right. A mixture of the proteins (equimolar amounts) and 1-NPN with both concentration of 2 µM in Tris-buffer was titrated with 1 mM solution of each competing ligand to final concentrations of 4–40 µM.
(§6) The 2 µM protein solution was dissolved in 50 mM Tris-HCl buffer with pH 7.4, and the ligands were dissolved in chromatographically pure methanol as a 1 mM stock solution. 1-NPN was dissolved in chromatographically pure methanol as a 1 mM stock solution. The protein solution was titrated to measure the protein’s affinity for the probe by adding aliquots of 1-NPN stock solution to final concentrations of 2 to 20µM.

HoblOBP2 = tested on: HoblOBP2; design: method as in PMID 21852709; conditions: HoblOBP2 alone; ref [13]; cited from earlier work
HoblOBP3 [4] = target: T1, HoblOBP3; assay: Binding curve of 1-NPN and Scatchard plot, HoblOBP3; conditions: HoblOBP3 2 µM in Tris-buffer, 1-NPN 2–20 µM; read-out: Dissociation constant of 1-NPN
Method: as §1, with “scanning. Several types of compounds purchased from Sigma-Aldrich (Chemie Gmbh, Steinheim, Germany) were identified in the binding assays, and their purities were > 97% (Table 1). […]” for “scanning.”
(§7) To determine the dissociation constants, the intensity values corresponding to the maximum fluorescence emission were plotted against free ligand concentrations. Assuming that the protein was 100% active and that the stoichiometric ratio between the protein and ligand was 1:1 at saturation, the bound ligand was determined from the fluorescence intensity values. […] The dissociation constants of the competitors (Ki) were calculated from the corresponding IC50 values using the following equation: Ki = [IC50]/1+[1-NPN]/K1-NPN. […]

HoblOBP4 [5] = target: T2, HoblOBP4; assay: Binding curve of 1-NPN and Scatchard plot, HoblOBP4; conditions: HoblOBP4 2 µM in Tris-buffer, 1-NPN 2–20 µM; read-out: Dissociation constant of 1-NPN
Method: as §1, with “scanning. Several types of compounds purchased from Sigma-Aldrich (Chemie Gmbh, Steinheim, Germany) were identified in the binding assays, and their purities were > 97% (Table 1). […]” for “scanning.”
as §7

[6] = tested on: HoblOBP1 and HoblOBP2 mixtures; assay: Competitive binding assay with binary protein mixture OBP1-OBP2; design: species or system Holotrichia oblita; conditions: HoblOBP1 and HoblOBP2 equimolar mixture and 1-NPN 2 µM, ligand 4–40 µM; compared to either protein alone
Method: as §4, §5, §6

HoblOBP1 = tested on: HoblOBP1; design: method as in PMID 21852709; conditions: HoblOBP1 alone; ref [13]; cited from earlier work
[7] = HoblOBP3, dash = IC50 exceeded 50 µM, read-out: IC50 (dash)
[8] = HoblOBP3, dash = ligand whose IC50 exceeded 50 µM, Ki not given, read-out: Ki (dash)
[9] = HoblOBP4, dash = IC50 exceeded 50 µM, read-out: IC50 (dash)
[10] = HoblOBP4, dash = ligand whose IC50 exceeded 50 µM, Ki not given, read-out: Ki (dash)
[11] = pH 7.4, HoblOBP3, at the ligand concentration 24 µM, protein and 1-NPN both 2 µM, read-out: Int (fluorescence intensity as percent of the initial fluorescence)
[12] = pH 7.4, HoblOBP4, at the ligand concentration 24 µM, protein and 1-NPN both 2 µM, read-out: Int (fluorescence intensity as percent of the initial fluorescence)
[13] = pH 7.4, read-out: Int (fluorescence intensity as percent of the initial fluorescence)

T2 sequence (G9BWQ8 entry or part of it): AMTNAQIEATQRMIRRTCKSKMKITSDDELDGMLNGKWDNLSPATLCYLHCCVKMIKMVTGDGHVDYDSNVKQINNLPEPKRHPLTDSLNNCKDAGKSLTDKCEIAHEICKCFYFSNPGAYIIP
T1 sequence (G9BWQ7 entry or part of it): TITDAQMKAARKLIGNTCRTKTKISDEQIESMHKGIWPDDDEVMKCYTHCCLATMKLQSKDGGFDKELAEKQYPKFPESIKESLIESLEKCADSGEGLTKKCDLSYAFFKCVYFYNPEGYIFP

SMILES	IC50 (HoblOBP3 [1]; [7])	Ki (HoblOBP3 [1]; [8])	IC50 (HoblOBP4 [2]; [9])	Ki (HoblOBP4 [2]; [10])	Affinity (in words) (HoblOBP4 [2])	Affinity (in words) [3]	Affinity (in words) (HoblOBP2)	Kd (HoblOBP3 [4])	Kd (HoblOBP4 [5])	IC50 (HoblOBP3 [1])	Ki (HoblOBP3 [1])	activity at 24 µM (HoblOBP3 [1]; [11])	IC50 (HoblOBP4 [2])	Ki (HoblOBP4 [2])	activity at 24 µM (HoblOBP4 [2]; [12])	Affinity (in words) [6]	Affinity (in words) (HoblOBP1)	activity at 24 µM (HoblOBP3 [1]; [13])	activity at 24 µM (HoblOBP4 [2]; [13])
CC1=C(/C=C/C(C)=C/C=C/C(C)=C/CO)C(C)(C)CCC1 [Retinol]	> 50 µM	> 50 µM	> 50 µM	> 50 µM	no afﬁnity	good affinity	low-afﬁnity or non-afﬁnity												
c1ccc(Nc2cccc3ccccc23)cc1 [1-NPN, N-phenyl-1-naphthylamine]								1.88 µM	2.78 µM										
CCC/C=C/CO [trans-2-Hexenol]							low-afﬁnity or non-afﬁnity			> 50 µM	> 50 µM	82%	24 µM	17.7 µM	51%	enhanced affinity	low-afﬁnity or non-afﬁnity		
CCCCCCC=O [1-Heptanal]	> 50 µM	> 50 µM	> 50 µM	> 50 µM			low-afﬁnity or non-afﬁnity					65%			64%	enhanced affinity	low-afﬁnity or non-afﬁnity		
CC1=CC[C@@H](C(C)(C)O)CC1 [α-Terpineol]							low-afﬁnity or non-afﬁnity			> 50 µM	> 50 µM		35.5 µM	26.1 µM		enhanced affinity	low-afﬁnity or non-afﬁnity	71%	53%
O=C/C=C/c1ccccc1 [Cinnamaldehyde]					good afﬁnity	good affinity	low-afﬁnity or non-afﬁnity			46 µM	30 µM		9 µM	6.6 µM				64%	36%
C=CCc1ccc(O)c(OC)c1 [Eugenol]					no afﬁnity	good affinity	low-afﬁnity or non-afﬁnity			> 50 µM	> 50 µM		> 50 µM	> 50 µM				97%	57%
CC(=O)/C=C/C1=C(C)CCCC1(C)C [β-Ionone]					good afﬁnity	enhanced affinity	good afﬁnity			8 µM	5.2 µM		15 µM	11 µM				36%	42%
C=C[C@](C)(O)CCC=C(C)C [R-(-)-Linalool]							low-afﬁnity or non-afﬁnity			> 50 µM	> 50 µM		20 µM	14.7 µM		enhanced affinity	low-afﬁnity or non-afﬁnity	73%	46%
